Patent US9127255B2, “3-dimensional scaffolds for improved differentiation of pluripotent stem cells to hepatocytes” (Takara Bio Europe AB, priority 2010, dated 2015)

Test system: CYP2C9
Assay: CYP2C9 activity and induction in cells cultured in Alvatex (ReInnervate) scaffolds, OH-Diclophenac by HPLC
Format: cell-based, human
Conditions: cells cultured on 3D surfaces (FIG. 8)
Procedure: Cell line SA461 (Cellartis AB) was cultured and differentiated according to conditions in Examples 1 and 2, experiment 083 and then according to the scheme below: Cells were induced with 1 mM Phenobarbital, 10 μM dexamethasone and 5 μM β-naphthoflavone. To each well, either induction or control medium was added (400 ul/well 2D cultures, 2000 ul/well in […] scaffolds) and the plate was incubated 24 h. After 24 hours of induction, all wells were washed 2× in DPBS+/+ and activity assay medium was added, 200 ul/well in 2D controls and 1000 ul/well in ReInnervate scaffolds. […] After 16 hours incubation at 37 C, the medium was transferred to eppendorf tubes and spun down for 20 min at 4° C. and 10000 g. […] Figures show CYP response in hESC-derived hepatocytes cultured either on […]) or 2D control, cells induced with Diclofenac to mimic hepatic liver activity. Activity assay performed at day 23 and day 29 as indicated.

O=C(O)Cc1ccccc1Nc1c(Cl)cccc1Cl [diclophenac]
CYP2C9 activity when cells were treated: elevated
